These results are taken from US20200239530A1, “COMPOUNDS AND METHODS OF MODULATING PROTEIN DEGRADATION” (Vividion Therapeutics, Inc., priority 2017, published 2020).

Molecules are shown by their SMILES.

The target of test [1] is T1, ALDH18A1 Delta-1-pyrroline-5-carboxylate synthase (Homo sapiens, UniProt P54886).
T1 construct: Cells were resuspended in cold PBS on ice and sonicated with a probe sonicator to achieve lysis; endogenous in cells
T1 sequence (P54886 1-795): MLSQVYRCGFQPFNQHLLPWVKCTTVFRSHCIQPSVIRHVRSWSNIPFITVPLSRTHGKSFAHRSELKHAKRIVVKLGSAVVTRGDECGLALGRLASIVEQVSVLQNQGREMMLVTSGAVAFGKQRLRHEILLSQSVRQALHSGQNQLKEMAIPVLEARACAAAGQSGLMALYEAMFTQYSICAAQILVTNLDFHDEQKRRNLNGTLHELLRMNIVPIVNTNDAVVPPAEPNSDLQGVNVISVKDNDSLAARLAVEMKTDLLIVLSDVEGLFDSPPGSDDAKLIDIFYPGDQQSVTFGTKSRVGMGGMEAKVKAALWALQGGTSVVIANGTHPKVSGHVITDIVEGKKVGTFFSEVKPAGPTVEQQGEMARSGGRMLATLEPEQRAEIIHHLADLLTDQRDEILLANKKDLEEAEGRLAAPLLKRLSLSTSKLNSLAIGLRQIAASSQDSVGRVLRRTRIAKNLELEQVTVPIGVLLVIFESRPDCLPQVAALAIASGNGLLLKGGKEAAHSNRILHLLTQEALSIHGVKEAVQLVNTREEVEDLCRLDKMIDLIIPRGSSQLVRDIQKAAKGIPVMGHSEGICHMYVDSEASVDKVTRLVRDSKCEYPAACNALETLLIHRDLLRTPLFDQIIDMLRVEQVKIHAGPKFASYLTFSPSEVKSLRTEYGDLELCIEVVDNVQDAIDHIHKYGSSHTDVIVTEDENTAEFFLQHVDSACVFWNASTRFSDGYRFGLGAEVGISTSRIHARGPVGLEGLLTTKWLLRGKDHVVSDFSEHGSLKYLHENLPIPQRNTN
The test is described as follows: Cysteine liganding, probe competition. The test is classed as binding. The gist of the method: (§1)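 Read-out is loss of desthiobiotin iodoacetamide labelling at cysteines, measured on streptavidin-enriched tryptic peptides. Compound preincubation ran 1 hr at 25° C in PBS lysate holding 5 mg/ml proteome before the probe was added.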

Test [2] has as its target T2, BIRC2 Baculoviral IAP repeat-containing protein 2 (Homo sapiens, UniProt Q13490).
T2 construct: Cells were resuspended in cold PBS on ice and sonicated with a probe sonicator to achieve lysis; endogenous in cells
The test is described as follows: Cysteine liganding, probe competition. It counts as binding. Conditions: for Liganded: BIRC2 Res# 45, uniprot Q13490. The gist of the method: as §1

T2 sequence (Q13490 whole entry): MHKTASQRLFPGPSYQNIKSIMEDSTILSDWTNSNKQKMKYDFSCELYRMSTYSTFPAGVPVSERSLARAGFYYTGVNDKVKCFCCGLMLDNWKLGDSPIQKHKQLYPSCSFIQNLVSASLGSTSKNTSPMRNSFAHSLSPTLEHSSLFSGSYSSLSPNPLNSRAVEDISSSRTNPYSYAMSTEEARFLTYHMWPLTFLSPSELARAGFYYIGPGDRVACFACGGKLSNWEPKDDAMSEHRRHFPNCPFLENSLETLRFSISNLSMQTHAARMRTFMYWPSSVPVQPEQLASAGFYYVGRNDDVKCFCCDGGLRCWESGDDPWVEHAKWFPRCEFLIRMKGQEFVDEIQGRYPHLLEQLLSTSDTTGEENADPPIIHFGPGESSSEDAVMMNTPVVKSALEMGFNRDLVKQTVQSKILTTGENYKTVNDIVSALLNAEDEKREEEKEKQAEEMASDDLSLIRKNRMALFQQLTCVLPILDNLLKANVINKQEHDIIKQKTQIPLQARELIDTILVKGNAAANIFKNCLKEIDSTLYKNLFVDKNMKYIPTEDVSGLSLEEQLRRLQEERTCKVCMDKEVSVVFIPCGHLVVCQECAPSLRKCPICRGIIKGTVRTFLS

In the case of `COc1ccc2c(c1)CCCN2C(=O)CCl` [KB02], the Liganded entry in test [1] (ALDH18A1 Res# 612, uniprot P54886) is “YES”; in test [2], “YES”.
As for `O=C(CCl)Nc1cc(C(F)(F)F)cc(C(F)(F)F)c1` [KBO3], in test [1] (uniprot P54886), the “100 Max” value is reported as 34.21, the 100 ave turned out to be 13.91, the “500 Max” value turned out to be 66.31 and the 500 ave turned out to be 66.23. In addition, the Liganded result in test [2] was “YES”. Besides, in test [2] (uniprot Q13490), the “100 Max” value was 47.9, the 100 ave is on record as 41.4, the “500 Max” value was found to be 92.0 and the 500 ave was 85.9.
